Among the data in patent US7553972B2, “Benzamide inhibitors of the P2X7 receptor” (Pfizer, Inc., priority 2003, dated 2009) are IC50 values, retold here.

Each structure is given as a SMILES string.

The target of the assay is T1, P2X7 receptor (Homo sapiens, UniProt Q99572).
T1 construct: endogenous in cells
T1 sequence (Q99572 1-595): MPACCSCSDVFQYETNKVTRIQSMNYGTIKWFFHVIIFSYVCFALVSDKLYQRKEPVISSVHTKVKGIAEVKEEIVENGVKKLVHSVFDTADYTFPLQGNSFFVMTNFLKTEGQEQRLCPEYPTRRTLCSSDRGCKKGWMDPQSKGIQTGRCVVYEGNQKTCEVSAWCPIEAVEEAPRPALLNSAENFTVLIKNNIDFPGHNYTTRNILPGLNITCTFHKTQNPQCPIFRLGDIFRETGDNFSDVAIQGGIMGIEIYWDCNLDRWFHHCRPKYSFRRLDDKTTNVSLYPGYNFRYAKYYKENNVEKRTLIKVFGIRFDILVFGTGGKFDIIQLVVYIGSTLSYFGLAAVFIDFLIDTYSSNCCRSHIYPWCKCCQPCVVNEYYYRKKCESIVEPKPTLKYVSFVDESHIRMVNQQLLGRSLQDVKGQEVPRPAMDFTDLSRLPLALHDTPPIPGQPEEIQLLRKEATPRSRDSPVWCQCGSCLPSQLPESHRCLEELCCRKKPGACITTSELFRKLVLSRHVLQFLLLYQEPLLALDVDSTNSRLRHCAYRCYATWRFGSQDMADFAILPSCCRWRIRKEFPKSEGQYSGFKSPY
The assay can be described thus: Inhibition of ATP-stimulated IL-1β release from LPS-activated blood monocytes (P2X7 antagonist activity, ELISA readout). The class given is cell-based. The settings on record: monocytes from normal volunteers, 10 ng/ml LPS 2 h, compound 30 min, 2 mM ATP 3 h, IL-1β by ELISA, triplicate wells; read-out: IC50 (inhibit 50% of the stimulation of the release of IL-1β from monocytes by ATP). Here is the method:
In like manner, the compounds of the invention can be tested for antagonist activity at the P2X7 receptor using the cytokine IL-1β as the readout. Blood collected from normal volunteers in the presence of heparin is fractionated using lymphocyte separation medium obtained from Organon Technica (Westchester, Pa.). […] The resulting cell pellet was suspended in 10 ml of Maintenance Medium and a cell count was performed. In an average experiment, 2×10^5 mononuclear cells are seeded into each well of 96-well plates in a total volume of 0.1 ml. Monocytes are allowed to adhere for 2 hours, after which the supernatants are discarded and the attached cells are rinsed twice and then incubated in Maintenance Medium overnight at 37° C. in a 5% CO2 environment.
The cultured monocytes can be activated with 10 ng/ml LPS (E. coli serotype 055:B5; Sigma Chemicals, St. Louis, Mo.). […] ATP then is introduced (from a 100 mM stock solution, pH 7) to achieve a final concentration of 2 mM and the plate is incubated at 37° C. for an additional 3 hours. Media were harvested and clarified by centrifugation, and their IL-1[…] content was determined by ELISA (R&D Systems; Minneapolis, Minn.).
Blood was collected from normal volunteers in the presence of heparin, and was fractionated using lymphocyte separation medium obtained from Organon Technica (Westchester, Pa.). […] The resulting cell pellet was suspended in 10 ml of Maintenance Medium and a cell count was performed. Approximately, 2×10^5 mononuclear cells were seeded into each well of 96-well plates in a total volume of 0.1 ml. Monocytes were allowed to adhere for 2 hours, after which the supernatants were discarded and the attached cells were rinsed twice and then incubated in Maintenance Medium overnight at 37° C. in a 5% CO2 environment.
The cultured monocytes were activated with 10 ng/ml LPS (E. coli serotype 055:B5; Sigma Chemicals, St. Louis, Mo.). […] ATP then was introduced (from a 100 mM stock solution, pH 7) to achieve a final concentration of 2 mM and the plate was incubated at 37° C. for an additional 3 hours. Media were harvested and clarified by centrifugation, and their IL-1β content was determined by ELISA (R&D Systems; Minneapolis, Minn.).
A general note: ELISA stands for enzyme-linked immunosorbent assay.
Take `O=C(NCC1(O)CCCCCC1)c1cc(-c2cc(C3CC3)[nH]n2)ccc1Cl` [Example 22, 2-Chloro-5-(5-cyclopropyl-1H-pyrazol-3-yl)-N-(1-hydroxy-cycloheptylmethyl)-benzamide]: the IC50 came out at 50 nM. Turning to `CCC(CO)NC(=O)Cn1nc(-c2ccc(Cl)c(C(=O)NCC3(O)CCCCCC3)c2)cc1C` (stereo not drawn) [Example 48, 2-Chloro-N-(1-hydroxy-cycloheptylmethyl)-5-{1-[(1-hydroxymethyl-propylcarbamoyl)-methyl]-5-methyl-1H-pyrazol-3-yl}-benzamide], the IC50 amounted to 10.5 nM. The result for `O=C(NCC1(O)CCCCCC1)c1cc(-c2ccc(=O)[nH]n2)ccc1Cl` [Example 5, 2-Chloro-N-(1-hydroxy-cycloheptylmethyl)-5-(6-oxo-1,6-dihydro-pyridazin-3-yl)-benzamide] reads 930 nM. The result for `O=C(NCC1(O)CCCCCC1)c1cc(-c2cc(C(F)(F)F)n[nH]2)ccc1Cl` [Example 23, 2-Chloro-N-(1-hydroxy-cycloheptylmethyl)-5-(5-trifluoromethyl-1H-pyrazol-3-yl)-benzamide] reads 200 nM; that for `Cc1cc(-c2ccc(Cl)c(C(=O)NCC3(O)CCCCCC3)c2)nn1CC(=O)N1C[C@H](O)[C@@H](O)C1` [Example 53, 2-Chloro-5-{1-[2-(3,4-dihydroxy-pyrrolidin-1-yl)-2-oxo-ethyl]-5-methyl-1H-pyrazol-3-yl}-N-(1-hydroxy-cycloheptylmethyl)-benzamide], 15.5 nM. In the case of `Cc1ccc(-c2ccc(Cl)c(C(=O)NCC3(O)CCCC(C)(C)C3)c2)nc1` (stereo not drawn) [Example 2, 2-Chloro-N-(1-hydroxy-3,3-dimethyl-cyclohexylmethyl)-5-(5-methyl-pyridin-2-yl)-benzamide] it was 11 nM. For `CNC(=O)CNC(=O)Cn1nc(-c2ccc(Cl)c(C(=O)NCC3(O)CCCCCC3)c2)cc1C` [Example 49, 2-Chloro-N-(1-hydroxy-cycloheptylmethyl)-5-{5-methyl-1-[(methylcarbamoylmethyl-carbamoyl)-methyl]-1H-pyrazol-3-yl}-benzamide], the IC50 stood at 5 nM. The result for `Cc1cc(-c2ccc(Cl)c(C(=O)NCC3(O)CCCCCC3)c2)nn1C[C@@](C)(O)CO` [Example 45, 2-Chloro-5-[1-(2,3-dihydroxy-2-methyl-propyl)-5-methyl-1H-pyrazol-3-yl]-N-(1-hydroxy-cycloheptylmethyl)-benzamide] reads 6 nM. In the case of `Cc1cc(-c2ccc(Cl)c(C(=O)NCC3(C#N)CCCCCC3)c2)[nH]n1` [Example 21, 2-Chloro-N-(1-cyano-cycloheptylmethyl)-5-(5-methyl-2H-pyrazol-3-yl)-benzamide] it was 46 nM. In the case of `Cc1cc(-c2ccc(Cl)c(C(=O)NCC3(O)CCCCCC3)c2)nn1CC#N` [Example 36, 2-Chloro-5-(1-cyanomethyl-5-methyl-1H-pyrazol-3-yl)-N-(1-hydroxy-cycloheptylmethyl)-benzamide] it was 51 nM; in that of `Cc1cc(-c2ccc(Cl)c(C(=O)NCC3(O)CCCCCC3)c2)n(C[C@@H](O)CN)n1` [Example 55, 5-[2-(3-Amino-2-hydroxy-propyl)-5-methyl-2H-pyrazol-3-yl]-2-chloro-N-(1-hydroxy-cycloheptylmethyl)-benzamide], 365 nM; in that of `Cc1cc(-c2ccc(Cl)c(C(=O)NCC3(O)CCCCCC3)c2)nn1CC(O)CN` (stereo not drawn) [Example 44, 5-[1-(3-Amino-2-hydroxy-propyl)-5-methyl-1H-pyrazol-3-yl]-2-chloro-N-(1-hydroxy-cycloheptylmethyl)-benzamide], 2.5 nM. For the compound `Cc1cc(-c2ccc(Cl)c(C(=O)NCC3(O)CCCC(C)(C)C3)c2)on1` (stereo not drawn) [Example 14, 2-Chloro-N-(1-hydroxy-3,3-dimethyl-cyclohexylmethyl)-5-(3-methyl-isoxazol-5-yl)-benzamide], the IC50 worked out at 81 nM. The result for `N#CCn1ccc(-c2ccc(Cl)c(C(=O)NCC3(O)CCCCCC3)c2)n1` [Example 34, 2-Chloro-5-(1-cyanomethyl-1H-pyrazol-3-yl)-N-(1-hydroxy-cycloheptylmethyl)-benzamide] reads 193 nM; that for `Cn1ccc(-c2ccc(Cl)c(C(=O)NCC3(O)CCCCCC3)c2)n1` [Example 29, 2-Chloro-N-(1-hydroxy-cycloheptylmethyl)-5-(1-methyl-1H-pyrazol-3-yl)-benzamide], 242 nM; that for `NCCn1ccc(-c2ccc(Cl)c(C(=O)NCC3(O)CCCCCC3)c2)n1` [Example 32, 5-[1-(2-Amino-ethyl)-1H-pyrazol-3-yl]-2-chloro-N-(1-hydroxy-cycloheptylmethyl)-benzamide], 38 nM.

As to `Cc1cc(-c2ccc(Cl)c(C(=O)NCC3(O)CCCCCC3)c2)on1` [Example 12, 2-Chloro-N-(1-hydroxy-cycloheptylmethyl)-5-(3-methyl-isoxazol-5-yl)-benzamide], the IC50 was determined as 240 nM. In the case of `COc1ccc(Cn2cc(-c3ccc(Cl)c(C(=O)NCCc4ccccc4Cl)c3)cn2)cc1` [Example 6, 2-Chloro-N-[2-(2-chloro-phenyl)-ethyl]-5-[1-(4-methoxy-benzyl)-1H-pyrazol-4-yl]-benzamide] it was 1400 nM; in that of `Cc1ccc(C2(CNC(=O)c3cc(-c4ccc(C)nc4)ccc3Cl)CCCCC2)cc1` [Example 1, 2-Chloro-5-(6-methyl-pyridin-3-yl)-N-(1-p-tolyl-cyclohexylmethyl)-benzamide], 29 nM.

Turning to `Cc1cc(-c2ccc(Cl)c(C(=O)NCC3(O)CCCCCC3)c2)nn1CCN` [Example 33, 5-[1-(2-Amino-ethyl)-5-methyl-1H-pyrazol-3-yl]-2-chloro-N-(1-hydroxy-cycloheptylmethyl)-benzamide], the IC50 came out at 11 nM.

Turning to `Cc1cc(-c2ccc(Cl)c(C(=O)NCC3(O)CCCCCC3)c2)nn1CC(=O)NCCN(C)C` [Example 47, 2-Chloro-5-{1-[(2-dimethylamino-ethylcarbamoyl)-methyl]-5-methyl-1H-pyrazol-3-yl}-N-(1-hydroxy-cycloheptylmethyl)-benzamide], the IC50 is 3.5 nM. As to `Cc1cc(-c2ccc(Cl)c(C(=O)NCC3(O)CCCCCC3)c2)nn1CC(=O)NC(CO)CO` [Example 50, 2-Chloro-N-(1-hydroxy-cycloheptylmethyl)-5-{1-[(2-hydroxy-1-hydroxymethyl-ethylcarbamoyl)-methyl]-5-methyl-1H-pyrazol-3-yl}-benzamide], the IC50 was found to be 5 nM. The result for `O=C(NCC1(O)CCCCCC1)c1cc(-c2ccn(CCO)n2)ccc1Cl` [Example 27, 2-Chloro-N-(1-hydroxy-cycloheptylmethyl)-5-[1-(2-hydroxy-ethyl)-1H-pyrazol-3-yl]-benzamide] reads 31 nM; that for `NC(=O)Cn1ccc(-c2ccc(Cl)c(C(=O)NCC3(O)CCCCCC3)c2)n1` [Example 35, 5-(1-Carbamoylmethyl-1H-pyrazol-3-yl)-2-chloro-N-(1-hydroxy-cycloheptylmethyl)-benzamide], 121 nM; that for `Cc1cc(-c2ccc(Cl)c(C(=O)NCC3(O)CCCCCC3)c2)nn1CC(=O)Nc1ncccn1` [Example 52, 2-Chloro-N-(1-hydroxy-cycloheptylmethyl)-5-[5-methyl-1-(pyrimidin-2-ylcarbamoylmethyl)-1H-pyrazol-3-yl]-benzamide], 8 nM. In the case of `O=C(NCC1(O)CCCCCC1)c1cc(-c2ccc(=O)n(CCO)n2)ccc1Cl` [Example 38, 2-Chloro-N-(1-hydroxy-cycloheptylmethyl)-5-[1-(2-hydroxy-ethyl)-6-oxo-1,6-dihydro-pyridazin-3-yl]-benzamide] it was 245 nM; in that of `COC[C@H](O)Cn1nc(-c2ccc(Cl)c(C(=O)NCC3(O)CCCCCC3)c2)cc1C` (stereo in doubt) [Example 39, 2-Chloro-N-(1-hydroxy-cycloheptylmethyl)-5-[1-(2-hydroxy-3-methoxy-propyl)-5-methyl-1H-pyrazol-3-yl]-benzamide], 8 nM.

As a reminder, the IC50 is the point on the concentration scale where inhibition reaches its midpoint.
